The values that follow are results of earlier work, collected in patent publication US20160113981A1, “TOPICAL COMPOSITION” (priority 2014, published 2016).

The conditions of data set [1]: after topical application of lavender oil.
For data set [2] the following is noted: equimolar dose of indomethacin.

For `C=CC(C)(CCC=C(C)C)OC(C)=O` (stereo not drawn) [linalyl acetate], the “time of peak in the blood” value in data set [1] was 19 min.
With `C=CC(C)(O)CCC=C(C)C` (stereo not drawn) [linalool], the “time of peak in the blood” value in data set [1] was 19 min.
As for `CC1=CC[C@@]2(C)[C@H]([C@@H]1C)[C@H]1CC[C@@H]3[C@@]4(C)CC[C@H](O)C(C)(C)[C@@H]4CC[C@@]3(C)[C@]1(C)C[C@@H]2O` [faradiol], the “anti-inflammatory effect compared with indomethacin” value in data set [2] is “same effects as an equimolar dose of indomethacin”.
